Read-outs that look alike come from different tables or passages of the source.

For assay [1], the system named is TDH derived from Cupriavidus necator NBRC 102504 (SEQ ID NO: 1) (CnTDH). The experiment in a line: Substrate specificity of TDH, standard assay. The assay is classed as biochemical. The note with it: for Activity of the enzyme with the coenzyme (in words): as coenzyme. On the procedure: L-threonine oxidation activity was determined by measuring coenzyme NAD^+ reduction at 30° C. and 340 nm. The reaction composition consisted of a total volume of 1 mL and contained L-threonine (final concentration 10 mM), NAD^+ (final concentration 2.5 mM), and glycine-KCl—KOH buffer (100 mM, pH 10.0). The measurement of activity began with the addition of the enzyme. One unit (U) of enzymatic activity was defined as the amount of enzyme producing 1 μmol of NADH per minute under standard conditions.
TDH was examined using substrates in the form of various L-amino acids, amino alcohols, and alcohols. […]

Assay [2] concerns the target PfTDH: TDH from Pyrococcus furiosus (Pyrococcus furiosus, UniProt Q8U259). Particulars: cited from earlier work.
Assay [3] deals with CyTDH: TDH from Cytophaga sp. KUC-1. The note with it: cited from earlier work.
In assay [4] the test system is CsTDH: TDH from Clostridium sticklandii. Particulars: cited from earlier work.
The subject of assay [5] is Purified TDH derived from Cupriavidus necator NBRC 102504. Kind of assay: Effect of metal ions and inhibitors on TDH activity (residual activity). The class given is biochemical.
[6] abbreviates: substrate concentration 10 mM, standard assay conditions, L-threonine = 100.
Where [7] appears, read: substrate specificity, L-threonine = 100.
Where [8] appears, read: metal ions final concentration 1 mM, 30° C. for 1 hour, relative to enzyme without additives.
[9] abbreviates: inhibitors final concentration 10 mM, 30° C. for 1 hour, None = 100.
Setting [10] is: inhibitors final concentration 10 mM, 30° C. for 1 hour.

Sequence of PfTDH: TDH from Pyrococcus furiosus (Q8U259 whole entry): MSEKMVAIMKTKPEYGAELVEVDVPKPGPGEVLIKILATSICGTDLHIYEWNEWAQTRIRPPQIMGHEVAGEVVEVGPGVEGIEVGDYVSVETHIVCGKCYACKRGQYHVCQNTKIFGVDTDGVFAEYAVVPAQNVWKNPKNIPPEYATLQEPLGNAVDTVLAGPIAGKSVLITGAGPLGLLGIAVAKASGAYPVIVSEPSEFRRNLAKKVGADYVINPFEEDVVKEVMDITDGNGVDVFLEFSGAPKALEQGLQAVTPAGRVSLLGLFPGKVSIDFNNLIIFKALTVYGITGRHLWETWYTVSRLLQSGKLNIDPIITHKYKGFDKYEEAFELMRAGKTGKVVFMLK

On to `CCC(N)CO` (racemic) [DL-2-amino1-butanol], for which the “Relative activity (%) CnTDH” value in assay [1] (setting [6]) was 0%.
Turning to `C[C@@H](O)[C@H](N)C(=O)O` (racemic) [DL-threonine], in assay [1] (setting [6]), the “Relative activity (%) CnTDH” value is 64%.
For the compound `CCC(O)CO` (centres unmarked) [1,2-Butanediol], the “Relative activity (%) PfTDH” value in assay [2] (setting [7]) was 52%. Moreover, the “Relative activity (%) CnTDH” value in assay [1] (setting [6]) was determined as 0%.
In the case of `CC(O)CCO` (centres unmarked) [1,3-Butanediol], the “Relative activity (%) PfTDH” value in assay [2] (setting [7]) was 0%. The “Relative activity (%) CnTDH” value in assay [1] (setting [6]) amounted to 0%.
As for `CCCCO` [1-Butanol], in assay [2], the “Relative activity (%) PfTDH” value is given as 0%. Besides, the “Relative activity (%) CnTDH” value in assay [1] (setting [6]) is listed as 0%.
Turning to `CC(O)C(C)O` (centres unmarked) [2,3-Butanediol], the “Relative activity (%) PfTDH” value in assay [2] (setting [7]) was 94%. In assay [1] (setting [6]), the “Relative activity (%) CnTDH” value amounted to 0%.
Consider `CCC(C)O` (centres unmarked) [2-Butanol], for which the “Relative activity (%) PfTDH” value in assay [2] was 0%. Further, the “Relative activity (%) CyTDH” value in assay [3] (setting [7]) was 0%. Besides, in assay [1] (setting [6]), the “Relative activity (%) CnTDH” value came out at 0%.
Take `CC(=O)C(C)O` (centres unmarked) [Acetoin]: the “Relative activity (%) PfTDH” value in assay [2] (setting [7]) was 38%. In addition, the “Relative activity (%) CnTDH” value in assay [1] (setting [6]) is 0%. Moreover, the “Relative activity (%) CsTDH” value in assay [4] (setting [7]) was 0%.
Turning to `O=[N+]([O-])[O-].[Ag+]` [AgNO3], the “Relative activity (residual TDH activity)” value in assay [5] (setting [8]) worked out at 100%.
As for `[Cl][Al]([Cl])[Cl]` [AlCl3], the “Relative activity (residual TDH activity)” value in assay [5] (setting [8]) was found to be 118%.
With `[Ba+2].[Cl-].[Cl-]` [BaCl2], in assay [5] (setting [8]), the “Relative activity (residual TDH activity)” value was 113%.
Regarding `[Ca+2].[Cl-].[Cl-]` [CaCl2], in assay [5] (setting [8]), the “Relative activity (residual TDH activity)” value is reported as 109%.
Consider `[Cl][Cr]([Cl])[Cl]` [CrCl3], for which the “Relative activity (residual TDH activity)” value in assay [5] (setting [8]) amounted to 110%.
Turning to `[Cl-].[Cs+]` [CsCl], the “Relative activity (residual TDH activity)” value in assay [5] (setting [8]) was determined as 117%.
As to `[Cl][Cu][Cl]` [CuCl2], the “Relative activity (residual TDH activity)” value in assay [5] (setting [8]) is given as 117%.
With `O=S(=O)([O-])[O-].[Cu+2]` [CuSO4], the “Relative activity (residual TDH activity)” value in assay [5] (setting [8]) turned out to be 115%.
On to `C[C@@H](O)[C@@H](N)C(=O)O` [D-allothreonine], for which the “Relative activity (%) CyTDH” value in assay [3] (setting [7]) is recorded as 0%. The “Relative activity (%) CnTDH” value in assay [1] (setting [6]) worked out at 0%. Also, in assay [4] (setting [7]), the “Relative activity (%) CsTDH” value is on record as 0%.
With `N[C@H](CO)C(=O)O` [D-serine], the “Relative activity (%) CnTDH” value in assay [1] (setting [6]) is on record as 0%.
On to `CCOC(=O)OC(=O)OCC` [DEPC], for which, in assay [5] (setting [9]), the “Relative activity (%) (residual TDH activity)” value is given as 92%.
Turning to `O[C@@H](CS)[C@@H](O)CS` [DTT], the “Inhibition of TDH activity (in words)” value in assay [5] (setting [10]) was “Nor did the reducing agents β-mercaptoethanol and DTT inhibit enzymatic activity”. Besides, the “Relative activity (%) (residual TDH activity)” value in assay [5] (setting [9]) was determined as 125%.
In the case of `O=C(O)CN(CCN(CC(=O)O)CC(=O)O)CC(=O)O` [EDTA], the “Inhibition of TDH activity (in words)” value in assay [5] (setting [10]) is listed as “not inhibited”. Also, the “Relative activity (%) (residual TDH activity)” value in assay [5] (setting [9]) is 103%.
Turning to `O=C(O)CN(CCOCCOCCN(CC(=O)O)CC(=O)O)CC(=O)O` [EGTA], in assay [5] (setting [10]), the “Inhibition of TDH activity (in words)” value is “not inhibited”. Further, the “Relative activity (%) (residual TDH activity)” value in assay [5] (setting [9]) came to 94%.
As for `[Cl][Fe][Cl]` [FeCl2], in assay [5] (setting [8]), the “Relative activity (residual TDH activity)” value turned out to be 68%.
The same measure, in the same setting: with `[Cl][Fe]([Cl])[Cl]` [FeCl3] the figure was 27%.
As for `OCC(O)CO` [Glycerol], the “Relative activity (%) PfTDH” value in assay [2] (setting [7]) is 4%. The “Relative activity (%) CnTDH” value in assay [1] (setting [6]) came out at 0%.
Take `NCC(=O)O` [Glycine]: the “Relative activity (%) PfTDH” value in assay [2] is on record as 0%. Further, the “Relative activity (%) CyTDH” value in assay [3] (setting [7]) is listed as 0%. Further, in assay [1] (setting [6]), the “Relative activity (%) CnTDH” value stood at 0%. Further, in assay [4] (setting [7]), the “Relative activity (%) CsTDH” value is on record as 0%.
On to `[Cl][Hg][Cl]` [HgCl2], for which, in assay [5], the “Relative activity (%) (residual TDH activity)” value worked out at 23%.
In the case of `NC(=O)CI` [Iodoacetamide], the “Inhibition of TDH activity (in words)” value in assay [5] (setting [10]) is given as “inhibited”. Also, the “Relative activity (%) (residual TDH activity)” value in assay [5] (setting [9]) is recorded as 0.8%.
On to `O=C(O)CI` [Iodoacetic acid], for which the “Relative activity (%) (residual TDH activity)” value in assay [5] was 48%.
In the case of `C[C@H](N)C(=O)O` [L-alanine], in assay [2] (setting [7]), the “Relative activity (%) PfTDH” value is given as 0%. Also, the “Relative activity (%) CyTDH” value in assay [3] (setting [7]) was 0%. Further, the “Relative activity (%) CnTDH” value in assay [1] (setting [6]) worked out at 0%. For the same compound, in assay [4] (setting [7]), the “Relative activity (%) CsTDH” value is listed as 0%.
In the case of `N=C(N)NCCC[C@H](N)C(=O)O` [L-arginine], the “Relative activity (%) PfTDH” value in assay [2] was 0%. Moreover, the “Relative activity (%) CyTDH” value in assay [3] was 0%. Also, in assay [1], the “Relative activity (%) CnTDH” value is reported as 0%. Moreover, in assay [4], the “Relative activity (%) CsTDH” value is 0%.
Take `NC(=O)C[C@H](N)C(=O)O` [L-asparagine]: the “Relative activity (%) PfTDH” value in assay [2] (setting [7]) was 0%. Further, in assay [3] (setting [7]), the “Relative activity (%) CyTDH” value is 0%. Further, the “Relative activity (%) CnTDH” value in assay [1] (setting [6]) was determined as 0%. Further, in assay [4] (setting [7]), the “Relative activity (%) CsTDH” value was 0%.
`NCCC[C@H](N)C(=O)O` [L-ornithine]: the “Relative activity (%) PfTDH” value in assay [2] is listed as 0%. Moreover, the “Relative activity (%) CnTDH” value in assay [1] (setting [6]) is 0%.
On to `[Cl-].[Li+]` [LiCl], for which, in assay [5] (setting [8]), the “Relative activity (residual TDH activity)” value is on record as 109%.
Regarding `[Cl-].[Cl-].[Mg+2]` [MgCl2], the “Relative activity (residual TDH activity)” value in assay [5] (setting [8]) was 112%.
As to `O=S(=O)([O-])[O-].[Mg+2]` [MgSO4], the “Relative activity (residual TDH activity)” value in assay [5] (setting [8]) is 112%.
In the case of `[Cl][Mn][Cl]` [MnCl2], in assay [5] (setting [8]), the “Relative activity (residual TDH activity)” value came to 102%.
As for `O=S(=O)([O-])[O-].[Mn+2]` [MnSO4], the “Relative activity (residual TDH activity)” value in assay [5] (setting [8]) came to 114%.
Consider `NC(=O)c1ccc[n+]([C@@H]2O[C@H](COP(=O)([O-])OP(=O)(O)OC[C@H]3O[C@@H](n4cnc5c(N)ncnc54)[C@H](OP(=O)(O)O)[C@@H]3O)[C@@H](O)[C@H]2O)c1` [NADP^+], for which the “Activity of the enzyme with the coenzyme (in words)” value in assay [1] was “No activity of the enzyme was observed”.
Still for that read-out and setting: with `NC(=O)c1ccc[n+]([C@@H]2O[C@H](COP(=O)([O-])OP(=O)(O)OC[C@H]3O[C@@H](n4cnc5c(N)ncnc54)[C@H](O)[C@@H]3O)[C@@H](O)[C@H]2O)c1` [NAD^+, nicotinamide adenine dinucleotide] the entry was “showed the activity”.
`CCN1C(=O)C=CC1=O` [NEM]: in assay [5] (setting [10]), the “Inhibition of TDH activity (in words)” value is recorded as “inhibited”. In addition, in assay [5] (setting [9]), the “Relative activity (%) (residual TDH activity)” value was 0.0%.
Turning to `[Na+].[Na+].[O]=[Mo](=[O])([O-])[O-]` [NaMoO4], in assay [5] (setting [8]), the “Relative activity (residual TDH activity)” value was 113%.
As for `[N-]=[N+]=[N-].[Na+]` [NaN3], the “Relative activity (%) (residual TDH activity)” value in assay [5] is recorded as 12%.
Regarding `[Cl][Ni][Cl]` [NiCl2], in assay [5] (setting [8]), the “Relative activity (residual TDH activity)” value is listed as 119%.
Regarding `O=C(O)c1cc[c]([Hg][Cl])cc1` [PCMB], the “Relative activity (%) (residual TDH activity)” value in assay [5] (setting [9]) came out at 6.2%.
`COS(=O)(=O)[O-].C[n+]1c2ccccc2nc2ccccc21` [PMS, phenazine methosulfate]: in assay [5] (setting [10]), the “Inhibition of TDH activity (in words)” value is on record as “inhibited”. The “Relative activity (%) (residual TDH activity)” value in assay [5] (setting [9]) was 0.0%.
Turning to `[Cl][Pb][Cl]` [PbCl2], in assay [5] (setting [8]), the “Relative activity (residual TDH activity)” value is on record as 118%.
Regarding `[Cl][Sn][Cl]` [SnCl2], in assay [5] (setting [8]), the “Relative activity (residual TDH activity)” value is 84%.
Consider `NCCS(=O)(=O)O` [Taurine], for which, in assay [1] (setting [6]), the “Relative activity (%) CnTDH” value is on record as 0%.
In the case of `[Cl-].[Cl-].[Zn+2]` [ZnCl2], the “Relative activity (residual TDH activity)” value in assay [5] (setting [8]) is 105%.
Consider `O=S(=O)([O-])[O-].[Zn+2]` [ZnSO4], for which the “Relative activity (residual TDH activity)” value in assay [5] (setting [8]) was 109%.
For the compound `OCCS` [β-mercaptoethanol], the “Inhibition of TDH activity (in words)” value in assay [5] (setting [10]) is “Nor did the reducing agents β-mercaptoethanol and DTT inhibit enzymatic activity”. Besides, in assay [5] (setting [9]), the “Relative activity (%) (residual TDH activity)” value is 114%.
As to Calcium pantothenate, the “Inhibition of TDH activity (in words)” value in assay [5] (setting [10]) is “slight inhibiting”. Besides, the “Relative activity (%) (residual TDH activity)” value in assay [5] (setting [9]) is listed as 95.0%.
CoCl2: the “Relative activity (residual TDH activity)” value in assay [5] turned out to be 115%.

The record behind these values is US8785147B2, “L-threonine analysis method and L-threonine dehydrogenase” (Toyama Prefecture, priority 2010, dated 2014).
